Results published in BigSolDB 2.1.

CCOC(=O)Cc1c(C(=O)OCC)sc(N(CC(=O)OCC)CC(=O)OCC)c1C#N
solubility (mole fraction)
Settings	in acetone	in acetonitrile	in cyclohexane	in ethanol	in ethyl acetate	in isopropanol	in methanol	in n-butanol	in n-propanol	in toluene
283.15 K	0.0364	0.0196	5.19e-05	0.000512	0.0224	0.000243	0.0012	0.000391	0.000617	0.0122
285.65 K	0.0394	0.0211	6.04e-05	0.000635	0.0259	0.000308	0.00149	0.000489	0.000762	0.014
288.15 K	0.043	0.0234	7.21e-05	0.00079	0.0296	0.000386	0.0018	0.000608	0.000953	0.0162
290.65 K	0.0456	0.0255	8.6e-05	0.000971	0.0339	0.000478	0.0022	0.000753	0.00118	0.0187
293.15 K	0.0498	0.028	0.000102	0.0012	0.0389	0.000592	0.00265	0.00094	0.00146	0.0216
295.65 K	0.0538	0.0303	0.00012	0.00148	0.0442	0.000736	0.00326	0.00115	0.0018	0.0249
298.15 K	0.0582	0.0334	0.000142	0.00178	0.0509	0.00091	0.00391	0.0014	0.00219	0.0286
300.65 K	0.0627	0.0365	0.00017	0.00216	0.0578	0.00111	0.00464	0.00173	0.00266	0.0328
303.15 K	0.0672	0.0396	0.000199	0.00264	0.066	0.00135	0.00556	0.00215	0.00327	0.0379
305.65 K	0.073	0.0433	0.000236	0.0032	0.0741	0.00162	0.00659	0.00259	0.00403	0.0434
308.15 K	0.079	0.0473	0.000279	0.0038	0.083	0.00197	0.00781	0.00316	0.00492	0.0498
310.65 K	0.0853	0.0515	0.000324	0.00457	0.0927	0.00236	0.00925	0.0039	0.006	0.0567
313.15 K	0.0921	0.0562	0.00038	0.00543	0.105	0.00286	0.0109	0.0047	0.00722	0.0647
315.65 K	0.0995	0.0612	0.000444	0.00645	0.118	0.00345	0.0128	0.00577	0.00868	0.0737
318.15 K	0.107	0.067	0.000516	0.00768	0.132	0.00413	0.015	0.00696	0.0104	0.0835
320.65 K	0.116	0.0734	0.000596	0.00904	0.146	0.00494	0.0174	0.00838	0.0126	0.0946
323.15 K	0.126	0.0805	0.0007	0.0107	0.163	0.00588	0.0198	0.0102	0.015	0.107
